Experimental data from ChEMBL document CHEMBL5725682, “Therapeutic inhibitory compounds” (2018).

Columns and labels:
[1] = target: Plasma kallikrein (Homo sapiens, UniProt P03952); assay: In Vitro Enzyme Inhibition of hPK: A 10 mM solution of the test compound was made in DMSO. […] A control tube containing only DMSO is included. […] 50 μL was removed from this mixture and placed into duplicate wells on a Microfluor 1Black U-bottom microtiter plate (Thermo Scientific). This plate was incubated for 5 minutes at 37° C. To each well, 50 μL of pre-warmed 2×PFR-AMC was added to start the enzymatic reaction. Cleavage of PFR-AMC was monitored in a Biotek Synergy H4 reader set at 37° C. Readings are taken every 43 seconds for 1 hour. […] The IC50 is calculated using the Gen5 (Biotek Instruments).
[2] = In Vitro Contact Cellular Assay: The test compounds at various concentrations, also prepared by serial dilutions as described above, are added to the test wells. The volume of test compound added to each test well was 12.5 μL, to yield final concentrations of 20 μM, 5 μM, 1.25 μM, 312.5 nM, 78.125 nM, 19.531 nM, 4.883 nM, 1.221 nM, 0.305 nM, and 0.076 nM. Each test compound concentration was tested in duplicates.In addition to the inhibitor control and test wells, the 96 well assay plate includes positive control wells which contained the mixture of human plasma and ellagic acid without C1NH inhibitor or test compounds, and background wells which contained neither the mixture of human plasma and ellagic acid nor the test compounds. The total volume of liquid in positive control and background wells was brought up to 35 μL, using the assay buffer.The assay plate containing C1NH inhibitors and test compounds mixed with human plasma and ellagic acid and appropriate controls was incubated at 37° C. for 5 min. A 10 mM stock solution of substrate Z-FR-2-AMC was diluted to 133.2 μM in the assay buffer, and 15 μL of the diluted substrate was added to each well, to yield a final substrate concentration of 40 μM in each well. The reagents were mixed well by shaking the plate gently for 30 sec.The enzyme reaction was quantified by immediate kinetic reading of the assay plate using excitation/emission wavelengths of 330 nm/440 nm respectively. Fluorescence intensity was recorded for 60 min, using a time interval of 43 sec.The inhibition activity of the test compounds were evaluated using the EC50 values, calculated according to the dose-response curve of the test compounds, fitted using the log(inhibitor)−response (variable slope)¿ equation in GraphPadPrism software (GraphPad Software, Inc.).

Sequence of Plasma kallikrein (P03952 20-390 limits assumed): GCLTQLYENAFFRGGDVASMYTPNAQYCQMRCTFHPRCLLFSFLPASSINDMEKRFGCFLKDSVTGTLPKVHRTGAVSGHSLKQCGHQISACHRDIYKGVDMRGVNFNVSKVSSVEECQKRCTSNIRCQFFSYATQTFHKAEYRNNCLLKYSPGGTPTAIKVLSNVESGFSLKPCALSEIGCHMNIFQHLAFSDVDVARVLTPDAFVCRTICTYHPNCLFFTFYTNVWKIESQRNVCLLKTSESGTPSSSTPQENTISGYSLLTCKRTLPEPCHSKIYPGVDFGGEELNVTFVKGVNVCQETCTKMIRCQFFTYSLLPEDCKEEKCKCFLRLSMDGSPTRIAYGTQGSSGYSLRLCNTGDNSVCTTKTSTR
Sequence of Plasma kallikrein (P03952 391-638 limits assumed): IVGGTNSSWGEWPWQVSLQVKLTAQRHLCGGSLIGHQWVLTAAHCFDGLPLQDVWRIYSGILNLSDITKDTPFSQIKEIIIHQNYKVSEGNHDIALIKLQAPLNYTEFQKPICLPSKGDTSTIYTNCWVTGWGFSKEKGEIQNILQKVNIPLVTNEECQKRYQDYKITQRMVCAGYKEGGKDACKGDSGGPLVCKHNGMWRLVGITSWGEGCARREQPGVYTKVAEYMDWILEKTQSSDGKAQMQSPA

Row | SMILES | IC50 [1] | EC50 [2]
1 | Cc1cc(C(=O)NCc2c(C)cc(N)nc2C)cc(Cc2ccc3ncc(Cl)cc3c2)n1 | – | < 0.1 µM
2 | Cc1cc(N)nc(C)c1CNC(=O)c1cc(Cc2ccc3ncc(Cl)cc3c2)nc(C(N)=O)c1 | – | in the range around 0.55 µM
3 | Cc1cc(N)nc(C)c1CNC(=O)c1ccnc(Cc2cccc(-c3noc(=O)[nH]3)c2)c1 | > 10 µM | –
4 | Cc1cc(N)nc(C)c1CNC(=O)c1ccnc(Cc2ccc3ncc(CC(F)F)cc3c2)c1 | < 0.1 µM | < 0.1 µM

Continued, values first:

Row | IC50 [1] | EC50 [2] | SMILES
5 | < 0.1 µM | < 0.1 µM | Cc1nc(N)ccc1CNC(=O)c1ccnc(Cc2ccc3ncc(C4CC4)cc3c2)c1
6 | > 10 µM | – | Cc1nc2c(cc1CNC(=O)c1ccnc(Cc3ccc4ncc(Cl)cc4c3)c1)CNC2
7 | < 0.1 µM | – | Nc1nccc2cc(CNC(=O)c3ccnc(Cc4ccc5ncc(N6CCCC6)cc5c4)c3)ccc12
8 | – | < 0.1 µM | Nc1nccc2cc(CNC(=O)c3ccnc(Cc4ccc5ncc(Cl)cc5c4)c3)ccc12
